Experimental data published in ChEMBL document CHEMBL3400002, “Structure-activity study for (bis)ureidopropyl- and (bis)thioureidopropyldiamine LSD1 inhibitors with 3-5-3 and 3-6-3 carbon backbone architectures” (Bioorg Med Chem, 2015).

How the values were obtained:
[1] = molecular target: T1, Amine oxidase [flavin-containing] A (Homo sapiens, UniProt P21397)
T1 sequence (P21397 whole entry): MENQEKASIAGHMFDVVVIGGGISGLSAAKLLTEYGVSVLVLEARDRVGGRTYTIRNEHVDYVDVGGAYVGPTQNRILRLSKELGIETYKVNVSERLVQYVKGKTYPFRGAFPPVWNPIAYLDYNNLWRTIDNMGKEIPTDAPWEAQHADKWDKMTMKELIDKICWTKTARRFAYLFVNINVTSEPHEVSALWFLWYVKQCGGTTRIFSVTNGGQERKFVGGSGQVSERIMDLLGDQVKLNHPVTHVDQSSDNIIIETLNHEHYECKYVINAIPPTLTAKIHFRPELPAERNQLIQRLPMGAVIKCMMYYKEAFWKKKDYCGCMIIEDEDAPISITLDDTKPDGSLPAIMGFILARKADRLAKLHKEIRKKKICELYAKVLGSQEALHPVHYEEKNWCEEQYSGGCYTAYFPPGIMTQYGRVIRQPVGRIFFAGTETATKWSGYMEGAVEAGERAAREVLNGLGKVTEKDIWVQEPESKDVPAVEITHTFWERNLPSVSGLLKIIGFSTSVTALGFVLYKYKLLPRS

[2] = molecular target: T2, Amine oxidase [flavin-containing] B (Homo sapiens, UniProt P27338)
T2 sequence (P27338 whole entry): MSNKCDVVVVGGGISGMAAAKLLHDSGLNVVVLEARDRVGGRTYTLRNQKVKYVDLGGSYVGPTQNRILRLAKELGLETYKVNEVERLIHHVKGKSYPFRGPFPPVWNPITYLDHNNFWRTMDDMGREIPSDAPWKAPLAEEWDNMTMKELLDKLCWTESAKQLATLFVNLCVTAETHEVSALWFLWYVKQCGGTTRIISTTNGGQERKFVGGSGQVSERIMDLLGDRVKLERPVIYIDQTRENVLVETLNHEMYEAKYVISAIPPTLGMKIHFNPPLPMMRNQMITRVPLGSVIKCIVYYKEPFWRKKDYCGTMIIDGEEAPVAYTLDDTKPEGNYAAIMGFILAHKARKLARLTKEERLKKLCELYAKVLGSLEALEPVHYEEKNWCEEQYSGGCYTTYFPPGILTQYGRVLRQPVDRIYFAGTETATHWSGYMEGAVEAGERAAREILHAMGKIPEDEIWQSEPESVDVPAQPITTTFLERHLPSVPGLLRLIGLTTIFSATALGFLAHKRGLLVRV

[3] = molecular target: Lysine-specific histone demethylase 1A (Homo sapiens) (UniProt O60341); test: Activation of human recombinant LSD1 at 10 uM after 30 mins to 4 hrs by fluorescence assay relative to control

SMILES | IC50 [1] | IC50 [2] | Activity [3]
N=C(NCCCNCCCCCCCNCCCNC(=N)NC(=N)NCCC(c1ccccc1)c1ccccc1)NC(=N)NCCC(c1ccccc1)c1ccccc1 | 37 µM | 10 µM | 
CCCNC(=O)NCCCNCCCCCCNCCCNC(=O)NCCC |  |  | 119%
O=C(NCCCNCCCCCCNCCCNC(=O)NCc1ccccc1)NCc1ccccc1 |  |  | 110%

Continued, values first:

IC50 [1] | IC50 [2] | Activity [3] | SMILES
 |  | 163% | O=C(NCCCNCCCCCNCCCNC(=O)Nc1ccccc1)Nc1ccccc1
 |  | 119% | CCNC(=O)NCCCNCCCCCCNCCCNC(=O)NCC
